The source of these data is patent publication US20150175599A1, “FAAH Inhibitors” (Ironwood Pharmaceuticals, Inc., priority 2010, published 2015).

The data set can be described thus: Pharmacokinetic study, plasma level 2 hours after oral dosing in rats. The format is in vivo. On the procedure:
Pharmacokinetic studies were conducted to determine absorption and distribution profiles of the disclosed compounds which were orally administered to rats.
Compounds were formulated in a 1% DMA/99% Vitamin E TPGS vehicle. Prepared compounds were dosed via oral gavage (PO). Following the appropriate pretreatment time of 2 hours, rats were anesthetized with isoflurane gas. Blood was collected into tubes containing EDTA via retro-orbital eye bleed. Whole blood was spun in a micro-centrifuge at approximately 13,000 rpm for 5 minutes at room temperature. Separated plasma was subsequently aliquoted into eppendorf tubes. Samples were stored at −80° C. until prepped for analysis.
Plasma samples were thawed and the required amount of plasma for standards, blanks and dilutions were made. The dilutions were prepared before plating. Preparation of crash solution included cold acetonitrile+0.1% formic acid and 25 ng/mL of a FAAH inhibitor used as internal standard. solvent standards of the FAAH inhibitor being studied were preparation at 10, 30, 100, 300, 1000, 3000, 10000, 30000, 100000, and 300000 ng/mL in DMSO. Then a plasma standard curve was generated from the solvent standards (final concentrations of standards in plasma were: 0.1, 0.3, 1, 3, 10, 30, 100, 300, 1000, 3000 ng/mL). 50 μL of each plasma sample/dilution, standard, or blank was transferred into 96-well plates. To each well, 200 μL of cold crash solution was added. The plate was covered and gently vortexed. The plate was centrifuged at 3500 rpm, 4° C. for 10 min. 200 μL of each supernatant was transferred into new plates. The plates were dried under nitrogen in a TurboVap at 55° C. The sample in each well was re-suspended with 100 μL of 30% acetonitrile, covered and vortexed gently. The well solutions were analyzed by the LC/MS/MS conditions and specifications below.
HPLC column was a Clipeus C8, 2.1×30 mm, 5 μm, with Basic 8 guard column using 20 μL injections. Mobile phase used was mobile phase A: 0.1% Formic Acid in water and mobile phase B: 0.1% Formic Acid in 85:10:5 ACN:IPA:H2O. The flow rate for the run was 0.5 mL/min and the gradient for the 4 minute total run time was: 0.0 minutes
For the compound `COc1cc(NC(=O)C(=O)c2c(C)n(Cc3ccc(Cl)cn3)c3ncc(C)cc23)ccn1` [Compound 75, (1-((5-chloropyridin-2-yl)methyl)-2,5-dimethyl-1H-pyrrolo[2,3-b]pyridin-3-yl)-N-(2-methoxypyridin-4-yl)-2-oxoacetamide], the “2 hr plasma level-ng/mL (rat, 10 mg/kg PO, 2 hr)” value (from here on “2 hr plasma level-ng/mL”) is listed as “D (D = greater than 1000 nM)”.
Then `COc1cc(NC(=O)C(=O)c2c(C)n(Cc3ccc(Cl)cc3)c3ncc(C)cc23)ccn1` [Compound 76, 2-(1-(4-chlorobenzyl)-2,5-dimethyl-1H-pyrrolo[2,3-b]pyridin-3-yl)-N-(2-methoxypyridin-4-yl)-2-oxoacetamide], with “C (C = between 100 nM and 1000 nM)”.
Turning to `COc1ccc2c(c1)c(C(=O)C(=O)Nc1ccnc(OC)c1)c(C)n2Cc1ccccn1` [Compound 77, 2-(5-methoxy-2-methyl-1-(pyridin-2-ylmethyl)-1H-indol-3-yl)-N-(2-methoxypyridin-4-yl)-2-oxoacetamide], the “2 hr plasma level-ng/mL” value is “C (C = between 100 nM and 1000 nM)”.
`COc1cc(NC(=O)C(=O)c2c(C)n(Cc3ncc(F)cc3F)c3ccc(C)cc23)ccn1` [Compound 88, 2-(1-((3,5-difluoropyridin-2-yl)methyl)-2,5-dimethyl-1H-indol-3-yl)-N-(2-methoxypyridin-4-yl)-2-oxoacetamide]: the “2 hr plasma level-ng/mL” value is reported as “D (D = greater than 1000 nM)”.
Consider `COc1ccc(Cn2c(C)c(C(=O)C(=O)Nc3ccnc(OC)c3)c3cc(OC)c(C)cc32)nc1` [Compound 96, 2-(5-methoxy-1-((5-methoxypyridin-2-yl)methyl)-2,6-dimethyl-1H-indol-3-yl)-N-(2-methoxypyridin-4-yl)-2-oxoacetamide], for which the “2 hr plasma level-ng/mL” value was “C (C = between 100 nM and 1000 nM)”.
Next, `COc1cc(NC(=O)C(=O)c2c(C)n(Cc3ncc(Cl)cc3F)c3cc(Cl)c(OC)cc23)ccn1` [Compound 97, 2-(6-chloro-1-((5-chloro-3-fluoropyridin-2-yl)methyl)-5-methoxy-2-methyl-1H-indol-3-yl)-N-(2-methoxypyridin-4-yl)-2-oxoacetamide]: “C (C = between 100 nM and 1000 nM)”; `COc1ccc(Cn2c(C)c(C(=O)C(=O)Nc3ccnc(OC)c3)c3cc(OC)c(Cl)cc32)nc1` [Compound 98, 2-(6-chloro-5-methoxy-1-((5-methoxypyridin-2-yl)methyl)-2-methyl-1H-indol-3-yl)-N-(2-methoxypyridin-4-yl)-2-oxoacetamide]: “C (C = between 100 nM and 1000 nM)”; `COc1cc(NC(=O)C(=O)c2c(C)n(Cc3ncc(Cl)cc3F)c3cc(F)c(OC)cc23)ccn1` [Compound 99, 2-(1-((5-chloro-3-fluoropyridin-2-yl)methyl)-6-fluoro-5-methoxy-2-methyl-1H-indol-3-yl)-N-(2-methoxypyridin-4-yl)-2-oxoacetamide]: “D (D = greater than 1000 nM)”.
Then `COc1cc(NC(=O)C(=O)c2c(C)n(Cc3ncc(F)cc3F)c3cc(F)c(OC)cc23)ccn1` [Compound 101, 2-(1-((3,5-difluoropyridin-2-yl)methyl)-6-fluoro-5-methoxy-2-methyl-1H-indol-3-yl)-N-(2-methoxypyridin-4-yl)-2-oxoacetamide], with “D (D = greater than 1000 nM)”.
